These compounds were tested on Zymoseptoria tritici (assay: Leaf Blotch of Wheat (SEPTTR) fungicidal activity). Conditions: 24 h, High Volume application, 100 ppm, wheat leaf blotch, 1 day protectant, read-out: SEPTTR disease control, 1DP (1 Day Protectant).
Type: in vivo
Experimental: Example A: Evaluation of Fungicidal Activity: Leaf Blotch of Wheat (Zymoseptoria tritici; Bayer Code […]) Technical grades of materials were dissolved in acetone, which were then mixed with nine volumes of H2O containing 110 ppm Triton X-100. The fungicide solutions were applied onto wheat seedlings using an automated booth sprayer to run-off. All sprayed plants were allowed to air dry prior to further handling. All fungicides were evaluated using the aforementioned method for their activity vs. all target diseases, unless stated otherwise. Wheat leaf blotch and brown rust activity were also evaluated using track spray applications, in which case the fungicides were formulated as EC formulations, containing 0.1% Trycol 5941 in the spray solutions. Wheat plants (variety Yuma) were grown from seed in a greenhouse in 50% mineral soil/50% soil-less Metro mix until the first leaf was fully emerged, with 7-10 seedlings per pot. These plants were inoculated with an aqueous spore suspension of Zymoseptoria tritici either prior to or after fungicide treatments. After inoculation the plants were kept in 100% relative humidity (one day in a dark dew chamber followed by two to three days in a lighted dew chamber at 20° C.) to permit spores to germinate and infect the leaf. The plants were then transferred to a greenhouse set at 20° C. for disease to develop. When disease symptoms were fully expressed on the 1st leaves of untreated plants, infection levels were assessed on a scale of 0 to 100 percent disease severity. Percent disease control was calculated using the ratio of disease severity on treated plants relative to untreated plants.

| SMILES | pest or weed control at 100 ppm |
| --- | --- |
| COc1ccnc(C(=O)N[C@H]2COCC[C@H](OCc3ccccc3)[C@@H](OCc3ccccc3)[C@H](C)OC2=O)c1OCOC(C)=O [Compound 1] | > 80% |
| CCCCO[C@H]1CCOC[C@H](NC(=O)c2nccc(OC)c2OCOC(C)=O)C(=O)O[C@@H](C)[C@@H]1OCC(C)C [Compound 7] | > 80% |
| COc1ccnc(C(=O)N[C@H]2CCCC[C@H](OCc3ccccc3)[C@@H](OCc3ccccc3)[C@H](C)OC2=O)c1OCOC(C)=O [Compound 8] | > 80% |
| COc1ccnc(C(=O)N[C@H]2CCCC[C@H](OCc3ccccc3)[C@@H](OCc3ccccc3)[C@H](C)OC2=O)c1OC(C)=O [Compound 9] | > 80% |
| COc1ccnc(C(=O)N[C@H]2CCCC[C@H](Oc3ccccc3)[C@@H](OCC(C)C)[C@H](C)OC2=O)c1OCOC(C)=O [Compound 10] | > 80% |

Same assay, conditions: 24 h, Low Volume application, 121.5 g/H, wheat leaf blotch, 1 day protectant, read-out: SEPTTR disease control, 1DP (1 Day Protectant)

| SMILES | pest or weed control at 121.5 g/ha |
| --- | --- |
| COc1ccnc(C(=O)N[C@H]2COCC[C@H](OCc3ccccc3)[C@@H](OCc3ccccc3)[C@H](C)OC2=O)c1OCOC(C)=O [Compound 1] | > 80% |
| COc1ccnc(C(=O)N[C@H]2CCCC[C@H](OCc3ccccc3)[C@@H](OCc3ccccc3)[C@H](C)OC2=O)c1OCOC(C)=O [Compound 8] | > 80% |
| COc1ccnc(C(=O)N[C@H]2CCCC[C@H](OCc3ccccc3)[C@@H](OCc3ccccc3)[C@H](C)OC2=O)c1OC(C)=O [Compound 9] | > 80% |

Same assay, conditions: 72 h, High Volume application, 100 ppm, wheat leaf blotch, 3 day curative, read-out: SEPTTR disease control, 3DC (3 Day Curative)

| SMILES | pest or weed control at 100 ppm |
| --- | --- |
| CCCCO[C@H]1CCOC[C@H](NC(=O)c2nccc(OC)c2OCOC(C)=O)C(=O)O[C@@H](C)[C@@H]1OCC(C)C [Compound 7] | < 80% |
| COc1ccnc(C(=O)N[C@H]2CCCC[C@H](OCc3ccccc3)[C@@H](OCc3ccccc3)[C@H](C)OC2=O)c1OCOC(C)=O [Compound 8] | < 80% |
| COc1ccnc(C(=O)N[C@H]2CCCC[C@H](OCc3ccccc3)[C@@H](OCc3ccccc3)[C@H](C)OC2=O)c1OC(C)=O [Compound 9] | < 80% |
| COc1ccnc(C(=O)N[C@H]2CCCC[C@H](Oc3ccccc3)[C@@H](OCC(C)C)[C@H](C)OC2=O)c1OCOC(C)=O [Compound 10] | > 80% |

Same assay, conditions: 72 h, Low Volume application, 121.5 g/H, wheat leaf blotch, 3 day curative, read-out: SEPTTR disease control, 3DC (3 Day Curative)

| SMILES | pest or weed control at 121.5 g/ha |
| --- | --- |
| COc1ccnc(C(=O)N[C@H]2COCC[C@H](OCc3ccccc3)[C@@H](OCc3ccccc3)[C@H](C)OC2=O)c1OCOC(C)=O [Compound 1] | < 80% |
| COc1ccnc(C(=O)N[C@H]2CCCC[C@H](OCc3ccccc3)[C@@H](OCc3ccccc3)[C@H](C)OC2=O)c1OCOC(C)=O [Compound 8] | > 80% |
| COc1ccnc(C(=O)N[C@H]2CCCC[C@H](OCc3ccccc3)[C@@H](OCc3ccccc3)[C@H](C)OC2=O)c1OC(C)=O [Compound 9] | > 80% |

These compounds were tested on Puccinia triticina (assay: Wheat Brown Rust (PUCCRT) fungicidal activity). Conditions: 24 h, High Volume application, 100 ppm, 1 day protectant, read-out: PUCCRT disease control, 1DP (1 Day Protectant).
Type: in vivo
Experimental: Technical grades of materials were dissolved in acetone, which were then mixed with nine volumes of H2O containing 110 ppm Triton X-100. The fungicide solutions were applied onto wheat seedlings using an automated booth sprayer to run-off. All sprayed plants were allowed to air dry prior to further handling. All fungicides were evaluated using the aforementioned method for their activity vs. all target diseases, unless stated otherwise. Wheat leaf blotch and brown rust activity were also evaluated using track spray applications, in which case the fungicides were formulated as EC formulations, containing 0.1% Trycol 5941 in the spray solutions. Wheat plants (variety Yuma) were grown from seed in a greenhouse in 50% mineral soil/50% soil-less Metro mix until the first leaf was fully emerged, with 7-10 seedlings per pot. These plants were inoculated with an aqueous spore suspension of Zymoseptoria tritici either prior to or after fungicide treatments. After inoculation the plants were kept in 100% relative humidity (one day in a dark dew chamber followed by two to three days in a lighted dew chamber at 20° C.) to permit spores to germinate and infect the leaf. The plants were then transferred to a greenhouse set at 20° C. for disease to develop. When disease symptoms were fully expressed on the 1st leaves of untreated plants, infection levels were assessed on a scale of 0 to 100 percent disease severity. Percent disease control was calculated using the ratio of disease severity on treated plants relative to untreated plants. Example B: Evaluation of Fungicidal Activity: Wheat Brown Rust (Puccinia triticina; Bayer Code PUCCRT) Wheat plants (variety Yuma) were grown from seed in a greenhouse in 50% mineral soil/50% soil-less Metro mix until the first leaf was fully emerged, with 7-10 seedlings per pot. These plants were inoculated with an aqueous spore suspension of Puccinia triticina either prior to or after fungicide treatments. After inoculation the plants were kept in a dark dew room at 22° C. with 100% relative humidity overnight to permit spores to germinate and infect the leaf. The plants were then transferred to a greenhouse set at 24° C. for disease to develop. Fungicide formulation, application and disease assessment followed the procedures as described in the Example A.

| SMILES | pest or weed control at 100 ppm |
| --- | --- |
| COc1ccnc(C(=O)N[C@H]2COCC[C@H](OCc3ccccc3)[C@@H](OCc3ccccc3)[C@H](C)OC2=O)c1OCOC(C)=O [Compound 1] | > 80% |
| CCCCO[C@H]1CCOC[C@H](NC(=O)c2nccc(OC)c2OCOC(C)=O)C(=O)O[C@@H](C)[C@@H]1OCC(C)C [Compound 7] | > 80% |
| COc1ccnc(C(=O)N[C@H]2CCCC[C@H](OCc3ccccc3)[C@@H](OCc3ccccc3)[C@H](C)OC2=O)c1OCOC(C)=O [Compound 8] | > 80% |
| COc1ccnc(C(=O)N[C@H]2CCCC[C@H](OCc3ccccc3)[C@@H](OCc3ccccc3)[C@H](C)OC2=O)c1OC(C)=O [Compound 9] | > 80% |
| COc1ccnc(C(=O)N[C@H]2CCCC[C@H](Oc3ccccc3)[C@@H](OCC(C)C)[C@H](C)OC2=O)c1OCOC(C)=O [Compound 10] | > 80% |

Same assay, conditions: 24 h, Low Volume application, 121.5 g/H, 1 day protectant, read-out: PUCCRT disease control, 1DP (1 Day Protectant)

| SMILES | pest or weed control at 121.5 g/ha |
| --- | --- |
| COc1ccnc(C(=O)N[C@H]2COCC[C@H](OCc3ccccc3)[C@@H](OCc3ccccc3)[C@H](C)OC2=O)c1OCOC(C)=O [Compound 1] | > 80% |
| COc1ccnc(C(=O)N[C@H]2CCCC[C@H](OCc3ccccc3)[C@@H](OCc3ccccc3)[C@H](C)OC2=O)c1OCOC(C)=O [Compound 8] | > 80% |
| COc1ccnc(C(=O)N[C@H]2CCCC[C@H](OCc3ccccc3)[C@@H](OCc3ccccc3)[C@H](C)OC2=O)c1OC(C)=O [Compound 9] | > 80% |

Same assay, conditions: 72 h, High Volume application, 100 ppm, 3 day curative, read-out: PUCCRT disease control, 3DC (3 Day Curative)

| SMILES | pest or weed control at 100 ppm |
| --- | --- |
| COc1ccnc(C(=O)N[C@H]2COCC[C@H](OCc3ccccc3)[C@@H](OCc3ccccc3)[C@H](C)OC2=O)c1OCOC(C)=O [Compound 1] | > 80% |
| CCCCO[C@H]1CCOC[C@H](NC(=O)c2nccc(OC)c2OCOC(C)=O)C(=O)O[C@@H](C)[C@@H]1OCC(C)C [Compound 7] | > 80% |
| COc1ccnc(C(=O)N[C@H]2CCCC[C@H](OCc3ccccc3)[C@@H](OCc3ccccc3)[C@H](C)OC2=O)c1OCOC(C)=O [Compound 8] | > 80% |
| COc1ccnc(C(=O)N[C@H]2CCCC[C@H](OCc3ccccc3)[C@@H](OCc3ccccc3)[C@H](C)OC2=O)c1OC(C)=O [Compound 9] | > 80% |
| COc1ccnc(C(=O)N[C@H]2CCCC[C@H](Oc3ccccc3)[C@@H](OCC(C)C)[C@H](C)OC2=O)c1OCOC(C)=O [Compound 10] | > 80% |

Same assay, conditions: 72 h, Low Volume application, 121.5 g/H, 3 day curative, read-out: PUCCRT disease control, 3DC (3 Day Curative)

| SMILES | pest or weed control at 121.5 g/ha |
| --- | --- |
| COc1ccnc(C(=O)N[C@H]2CCCC[C@H](OCc3ccccc3)[C@@H](OCc3ccccc3)[C@H](C)OC2=O)c1OCOC(C)=O [Compound 8] | > 80% |
| COc1ccnc(C(=O)N[C@H]2CCCC[C@H](OCc3ccccc3)[C@@H](OCc3ccccc3)[C@H](C)OC2=O)c1OC(C)=O [Compound 9] | < 80% |
